ChEMBL document CHEMBL1201862, “PubChem BioAssay data set” (2004)
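1) Cells in 96-well plates. 2) Compound, 48 h, 5 concentrations. 3) Linear interpolation between surrounding doses. 4) Unreached endpoint = highest concentration. Abbreviation: GI50, concentration required for 50% inhibition of growth.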 Activity calls are given as the source filed them. Rule as the data show it: active = GI50 up to about 1.1 µM and inactive = higher.

Key:
Experiment in all cases: growth of human tumour cells (NCI), 48 h
OVCAR-8 = system: OVCAR-8
M14 = system: M14
HCC 2998 = system: HCC 2998
786-0 = system: 786-0
MDA-MB-231 = system: MDA-MB-231
RXF 393 = system: RXF 393
BT-549 = system: BT-549
NCI-H226 = system: NCI-H226
HT-29 = system: HT-29
SK-MEL-2 = system: SK-MEL-2
NCI-H23 = system: NCI-H23
HCT-116 = system: HCT-116
LOX IMVI = system: LOX IMVI
SF-268 = system: SF-268
SNB-75 = system: SNB-75
T47D = system: T47D
UACC-257 = system: UACC-257
A498 = system: A498
UO-31 = system: UO-31
HL-60 = system: HL-60

Row | SMILES | GI50 (OVCAR-8) | GI50 (M14) | GI50 (HCC 2998) | GI50 (786-0) | GI50 (MDA-MB-231) | GI50 (RXF 393) | GI50 (BT-549) | GI50 (NCI-H226) | GI50 (HT-29) | GI50 (SK-MEL-2) | GI50 (NCI-H23) | GI50 (HCT-116) | GI50 (LOX IMVI) | GI50 (SF-268) | GI50 (SNB-75) | GI50 (T47D) | GI50 (UACC-257) | GI50 (A498) | GI50 (UO-31) | GI50 (HL-60)
1 | Cn1ncc2c(NCCc3ccccc3)nc(Cl)nc21 | 27.2 µM (inactive) | 15 µM (inactive) | 18.8 µM (inactive) | 23.4 µM (inactive) | 3.97 µM (inactive) | 17.1 µM (inactive) | 23.5 µM (inactive) | 21.5 µM (inactive) | 14.7 µM (inactive) | 10.7 µM (inactive) | 24.8 µM (inactive) | 27.8 µM (inactive) | 16.7 µM (inactive) | 38.2 µM (inactive) | 21.1 µM (inactive) | 11.4 µM (inactive) | 2.48 µM (inactive) | 17.7 µM (inactive) | 19 µM (inactive) | 
2 | Cc1ccc(OC2CC(n3cnc4ncnc(Cl)c43)OC2Oc2ccc(C)cc2)cc1 (stereo not drawn) | 8.32 µM (inactive) | 18.1 µM (inactive) | 8.04 µM (inactive) | > 100 µM (inactive) | 17.5 µM (inactive) |  | 25.4 µM (inactive) | 13.7 µM (inactive) | 16.9 µM (inactive) | 13.6 µM (inactive) | 24.8 µM (inactive) | 9.77 µM (inactive) | 5.51 µM (inactive) | 18.7 µM (inactive) | 15.6 µM (inactive) | 12.6 µM (inactive) | 44.8 µM (inactive) | 45.6 µM (inactive) | 11.1 µM (inactive) | 3.77 µM (inactive)
3 | Cn1c(=O)c2c(no[n+]2[O-])c2ccccc21 | 12.7 µM (inactive) | 12.4 µM (inactive) | 12.9 µM (inactive) | 15.5 µM (inactive) | 19.7 µM (inactive) | 19.9 µM (inactive) | 15 µM (inactive) | 16.9 µM (inactive) | 17.5 µM (inactive) | 12.4 µM (inactive) | 15 µM (inactive) | 12.9 µM (inactive) | 10.9 µM (inactive) | 20.5 µM (inactive) | 18.6 µM (inactive) | 21.6 µM (inactive) | 15.3 µM (inactive) | 31.9 µM (inactive) | 24.3 µM (inactive) | 
4 | CCCCn1c2c(n(CCCC)c1=S)-c1c(n(CCCC)c(=S)n1CCCC)SSSS2 | 0.718 µM (active) | 3.92 µM (inactive) | 7.59 µM (inactive) | 1.38 µM (inactive) | 0.656 µM (active) | 2.7 µM (inactive) | 0.973 µM (active) | 16.6 µM (inactive) | 2.26 µM (inactive) | 2.09 µM (inactive) | 3.31 µM (inactive) | 2.24 µM (inactive) | 2.03 µM (inactive) | 3.44 µM (inactive) | 4.48 µM (inactive) | 0.18 µM (active) | 2.29 µM (inactive) | > 47.2 µM (inactive) | 0.881 µM (active) | 
5 | CC(=O)O/C(=C(/C#N)C(=O)O)C1C(C(=O)O)C(c2ccccc2[N+](=O)[O-])C=C(c2ccco2)N1c1ccncc1 (stereo not drawn) | 5.02 µM (inactive) | 2.87 µM (inactive) | 4.97 µM (inactive) | 2.82 µM (inactive) | 4.78 µM (inactive) |  | 6.04 µM (inactive) | 4.63 µM (inactive) | 1.61 µM (inactive) | 9.25 µM (inactive) | 5.45 µM (inactive) | 1.52 µM (inactive) | 1.91 µM (inactive) | 9.23 µM (inactive) | 6.38 µM (inactive) | 6.73 µM (inactive) | 3.9 µM (inactive) | 11.2 µM (inactive) | 2.87 µM (inactive) | 2.75 µM (inactive)
6 | Cc1ccc(C)c(NC(=O)C(Cc2c[nH]c3ccccc23)NC(=O)OCc2ccccc2)c1 (stereo not drawn) | 17.5 µM (inactive) | 13.6 µM (inactive) |  | 15.5 µM (inactive) | 16.1 µM (inactive) | 6.34 µM (inactive) | 21.8 µM (inactive) |  | 12.4 µM (inactive) | 16 µM (inactive) | 21.3 µM (inactive) | 23 µM (inactive) | 37.3 µM (inactive) | 26.4 µM (inactive) | 11.3 µM (inactive) | 9.18 µM (inactive) | 10.6 µM (inactive) | 35.6 µM (inactive) | 15.4 µM (inactive) | 3 µM (inactive)
7 | C/C=C\C(CC(=O)NCCC1CN(C(=O)c2ccccc2)c2ccccc21)CC(=O)OC (stereo not drawn) | > 100 µM (inactive) | > 100 µM (inactive) | > 100 µM (inactive) | > 100 µM (inactive) | > 100 µM (inactive) | > 100 µM (inactive) | > 100 µM (inactive) |  | > 100 µM (inactive) | > 100 µM (inactive) | > 100 µM (inactive) | > 100 µM (inactive) |  | > 100 µM (inactive) | > 100 µM (inactive) | > 100 µM (inactive) | > 100 µM (inactive) | > 100 µM (inactive) | > 100 µM (inactive) | 
8 | CNc1ncnc2c1cnn2Cc1cn(CCCCO)nn1 | > 100 µM (inactive) | > 100 µM (inactive) | > 100 µM (inactive) | > 100 µM (inactive) | > 100 µM (inactive) | > 100 µM (inactive) | > 100 µM (inactive) | > 100 µM (inactive) | > 100 µM (inactive) | > 100 µM (inactive) | > 100 µM (inactive) | > 100 µM (inactive) | > 100 µM (inactive) | > 100 µM (inactive) |  | > 100 µM (inactive) | > 100 µM (inactive) | > 100 µM (inactive) | > 100 µM (inactive) | 
9 | CCOc1ccc2c(c1)c(=O)c1c(NCCN(CC)CC)ccc3nnn2c31 | 7.05 µM (inactive) | 35.2 µM (inactive) | > 33.6 µM (inactive) | > 32.8 µM (inactive) | 18.6 µM (inactive) | 8.55 µM (inactive) | > 71.3 µM (inactive) | 11.9 µM (inactive) | 12.6 µM (inactive) | > 100 µM (inactive) | 14.9 µM (inactive) | > 25.4 µM (inactive) | 11.4 µM (inactive) | 21.5 µM (inactive) |  | > 100 µM (inactive) | > 41.6 µM (inactive) | > 100 µM (inactive) | 3.4 µM (inactive) | 
10 | Cn1nc(Cc2ccc(Cl)cc2)n(N)c1=O | > 100 µM (inactive) |  | > 100 µM (inactive) | > 100 µM (inactive) | > 100 µM (inactive) | > 100 µM (inactive) | > 100 µM (inactive) | > 100 µM (inactive) | > 100 µM (inactive) |  | > 100 µM (inactive) | > 100 µM (inactive) |  | > 100 µM (inactive) | > 100 µM (inactive) | > 100 µM (inactive) | > 100 µM (inactive) | > 100 µM (inactive) | > 100 µM (inactive) | 
11 | Oc1ccc(O)c(CNc2ccc(C(O)C(F)(F)F)cc2)c1 (stereo not drawn) | 10.4 µM (inactive) | 14.8 µM (inactive) |  | 13 µM (inactive) | 15.6 µM (inactive) | 12.5 µM (inactive) | 12.1 µM (inactive) | 18.4 µM (inactive) | 32.4 µM (inactive) | 20.1 µM (inactive) | 21.4 µM (inactive) | 16.7 µM (inactive) | 14.2 µM (inactive) | 22.2 µM (inactive) | 12.2 µM (inactive) | 18.1 µM (inactive) | 18.4 µM (inactive) | 41.4 µM (inactive) | 10.3 µM (inactive) | 3.42 µM (inactive)
12 | OC1CCN(c2c3ccccc3nc3ccccc23)CC1 | 24.8 µM (inactive) | 6.92 µM (inactive) |  | 4.99 µM (inactive) | 25.1 µM (inactive) | 4.55 µM (inactive) | 17.7 µM (inactive) | 34.2 µM (inactive) | 2.28 µM (inactive) | 5.52 µM (inactive) | 8.02 µM (inactive) | 4.84 µM (inactive) | 4.52 µM (inactive) | 17.2 µM (inactive) | 23.8 µM (inactive) | 1.51 µM (inactive) | 20.4 µM (inactive) | 19 µM (inactive) | 2.45 µM (inactive) | 8.61 µM (inactive)
13 | O=C1OC(c2ccco2)=N/C1=C\c1cccc([N+](=O)[O-])c1 | > 100 µM (inactive) | > 100 µM (inactive) | > 100 µM (inactive) | > 100 µM (inactive) | > 100 µM (inactive) |  | > 100 µM (inactive) | > 100 µM (inactive) | > 100 µM (inactive) | > 100 µM (inactive) | > 100 µM (inactive) | > 100 µM (inactive) | > 100 µM (inactive) | > 100 µM (inactive) | > 100 µM (inactive) | > 100 µM (inactive) | > 100 µM (inactive) | > 100 µM (inactive) |  | > 100 µM (inactive)
14 | CC(C)(C)C1=CC(O)(c2c3ccccc3c(C3(O)C=C(C(C)(C)C)C(=O)C(C(C)(C)C)=C3)c3ccccc23)C=C(C(C)(C)C)C1=O | > 100 µM (inactive) | > 100 µM (inactive) |  | > 100 µM (inactive) | 27 µM (inactive) |  | > 100 µM (inactive) | > 100 µM (inactive) | > 100 µM (inactive) | > 100 µM (inactive) | > 100 µM (inactive) | > 100 µM (inactive) | > 100 µM (inactive) | > 100 µM (inactive) | 35.2 µM (inactive) | > 100 µM (inactive) | > 100 µM (inactive) | 0.116 µM (active) | > 100 µM (inactive) | > 10 µM (inactive)
15 | Nc1n[n+]([O-])c2cc([N+](=O)[O-])ccc2[n+]1[O-] | 3.44 µM (inactive) | 4.84 µM (inactive) |  | 4.63 µM (inactive) | 4.99 µM (inactive) |  | 18.1 µM (inactive) | 15.5 µM (inactive) | 2.53 µM (inactive) | 15 µM (inactive) | 13.8 µM (inactive) | 2.9 µM (inactive) | 1.38 µM (inactive) |  | 26.7 µM (inactive) | 3.95 µM (inactive) | 13.3 µM (inactive) | 15.9 µM (inactive) | 10.5 µM (inactive) | 2.2 µM (inactive)
